Converted amounts (≈) assume the structure as drawn. Read-outs that look alike come from different tables or passages of the source. Bounds are passed on as bounds.

The target of one data set is KRAS (G12D)::SOS1 (Homo sapiens (Human), UniProt P01116, G12D). As to the kind of experiment: KRAS::SOS1 AlphaScreen binding assay, KRAS G12D. From the text:
(§1) This assay can be used to examine the potency with which compounds according to the invention binding to (mutated) KRAS inhibit the protein-protein interaction between SOS1 and (mutated) KRAS e.g., KRAS WT, KRAS G12C, KRAS G12D, KRAS G12V, KRAS G13D. […] Low IC50 values in this assay setting are indicative of strong inhibition of protein-protein interaction between SOS1 and KRAS:
(§2) These assays measure the inhibitory effect of compounds on KRAS mutant protein-protein interactions using the Alpha Screen technology by Perkin Elmer.
(§3) The following (mutant) enzyme forms of KRAS and interacting proteins are used in these assays at the given concentrations: • KRAS (G12D) 1-169, N-terminal 6His-tag, C-terminal avi-tag (Xtal BioStructures, Inc.); final assay concentration 10 nM and SOS1 564-1049, N-terminal 229 GST-tag, TEV cleavage site (Viva Biotech Ltd); final assay concentration 5 nM; • KRAS (G12C) 1-169, N-terminal 6His-tag for purification, cleaved off, C-terminal avi-tag, biotinylated, mutations: C51S, C80L, C118S (in house); final assay concentration 7.5 nM and SOS1 564-1049, N-terminal 229 GST-tag, TEV cleavage site (Viva Biotech Ltd); final assay concentration 5 nM; • KRAS (G12V) 1-169, N-terminal 6His-tag for purification, cleaved off, C-terminal avi-tag, biotinylated, TEV cleavage site, mutation: C118S, GDP loaded (in house); final assay concentration 10 nM and SOS1 564-1049, N-terminal 229 GST-tag, TEV cleavage site (Viva Biotech Ltd); final assay concentration 10 nM; • KRAS (G13D) 1-169, N-terminal 6His-tag for purification, cleaved off, C-terminal avi-tag, biotinylated, TEV cleavage site, mutation: C118S, GDP loaded (in house); final assay concentration 10 nM and SOS1 564-1049, N-terminal 229 GST-tag, TEV cleavage site (Viva Biotech Ltd); final assay concentration 10 nM; • KRAS (WT) 1-169, N-terminal 6His-tag for purification, cleaved off, C-terminal avi-tag, biotinylated, TEV cleavage site, mutation: C118S, GDP loaded (in house); final assay concentration 10 nM and SOS1 564-1049, N-terminal 229 GST-tag, TEV cleavage site (Viva Biotech Ltd); final assay concentration 10 nM.
(§4) Test compounds dissolved in DMSO are dispensed onto assay plates (Proxiplate 384 PLUS, white, PerkinElmer; 6008289) using an Access Labcyte Workstation with the Labcyte Echo 55×. For the chosen highest assay concentration of 100 μM, 150 nL of compound solution are transferred from a 10 mM DMSO compound stock solution. A series of eleven fivefold dilutions per compound are transferred to the assay plate, compound dilutions are tested in duplicates. DMSO are added as backfill to a total volume of 150 nL.
(§5) The assays run on a fully automated robotic system in a darkened room below 100 Lux. To 150 nl of compound dilution 10 μl of a mix including KRAS mutant protein, SOS1 (final assay concentrations see above) and GDP nucleotide (Sigma G7127; final assay concentration 10 μM) in assay buffer (1×PBS, 0.1% BSA, 0.05% Tween 20) are added into columns 1-24.
(§6) After 30 minutes incubation time 5 μl of Alpha Screen bead mix in assay buffer are added into columns 1-23. Bead mix consists of AlphaLISA Glutathione Acceptor Beads (PerkinElmer, Cat No AL109) and AlphaScreen Streptavidin Donor Beads (PerkinElmer Cat No 6760002) in assay buffer at a final assay concentration of 10 μg/ml each.
(§7) Plates are kept at room temperature in a darkened incubator. After an additional 60 minutes incubation time the signal is measured in a PerkinElmer Envision HTS Multilabel Reader using the AlphaScreen specs from PerkinElmer.
(§8) Each plate contains up to 16 wells of a negative control depending on the dilution procedure (platewise or serial) (DMSO instead of test compound; with KRAS mutant::SOS1 GDP mix and bead mix; column 23) and 16 wells of a positive control (DMSO instead of test compound; with KRAS mutant::SOS1 GDP mix w/o bead mix; column 24).
(§9) As internal control known inhibitors of KRAS mutant::SOS1 interaction can be measured on each compound plate. […]
(In Alpha technology, singlet oxygen from a donor bead excites a nearby acceptor bead.)

Data set [1] in a line: Solubility measurement (DMSO solution method), McIlvaine buffer pH 4.5 or 6.8. The data set is classed as physicochemical. The following applies: aqueous buffer, kinetic from dmso stock, DMSO stock diluted to 250 μM, 24 h shaking at ambient temperature. The procedure:
The DMSO solution is diluted with an aqueous medium (Mcllvaine buffer with pH=4.5 or 6.8) to a final concentration of 250 μM. After 24 h of shaking at ambient temperature a potentially formed precipitate is removed by filtration. The concentration of the test compound in the filtrate is determined by LC-UV methods by calibrating the signal to the signal of a reference solution with complete dissolution of the test compound in acetonitrile/water (1:1) with known concentration.

The target of a further data set is KRAS (G12C)::SOS1 (Homo sapiens (Human), UniProt P01116, C118S/C51S/C80L/G12C). As to the kind of experiment: KRAS::SOS1 AlphaScreen binding assay, KRAS G12C.
Description: as §1, §2, §3, §4, §5, §6, §7, §8, §9

For data set [2], the system named is KRAS G12C-dependent Ba/F3 cells. The experiment in a line: Ba/F3 proliferation assay, KRAS G12C. The following applies: Mus musculus, BaF3, 72 h, AlamarBlue. The data set is classed as cell-based. The procedure: (§10) Plasmids containing KRASG12 mutants (i.e. […], G12C, G12V) are obtained from GeneScript. To generate KRASG12-dependent Ba/F3 models, Ba/F3 cells are transduced with retroviruses containing vectors that harbor KRASG12 isoforms. Platinum-E cells (Cell Biolabs) are used for retrovirus packaging. Retrovirus is added to Ba/F3 cells. To ensure infection, 4 μg/mL polybrene is added and cells are spinfected. […] Cells with an infection efficiency of 10% to 20% are further cultivated and puromycin selection with 1 μg/mL is initiated. As a control, parental Ba/F3 cells are used to show selection status. Selection is considered successful when parental Ba/F3 cells cultures died. To evaluate the transforming potential of KRASG12 mutations, the growth medium is no longer supplemented with IL-3. Ba/F3 cells harboring the empty vector are used as a control. Approximately ten days before conducting the experiments, puromycin is left out.
(§11) Compounds are added using an Access Labcyte Workstation with a Labcyte Echo 550 or 555 accoustic dispenser. All treatments are performed in technical duplicates. […] AlamarBlue™ (ThermoFisher), a viability stain, is added and fluorescence measured in the PerkinElmer Envision HTS Multilabel Reader. The raw data are imported into and analyzed with the Boehringer Ingelheim proprietary software MegaLab (curve fitting based on the program PRISM, GraphPad Inc.).

The nature of data set [3]: Metabolic (microsomal) stability assay, human liver microsomes (HLM). The conditions noted are these: predicted clearance as percent of liver blood flow, 1 μM. The data set is classed as in vitro ADME. The procedure:
The metabolic degradation of the test compound is assayed at 37° C. with pooled liver microsomes (mouse (MLM), rat (RLM) or human (HLM)). The final incubation volume of 48 μL pertime point contains TRIS buffer (pH 7.5; 0.1 M), magnesium chloride (6.5 mM), microsomal protein (0.5 mg/mL for mouse/rat, 1 mg/mL for human specimens) and the test compound at a final concentration of 1 μM. Following a short preincubation period at 37° C., the reactions are initiated by addition of 12 μL beta-nicotinamide adenine dinucleotide phosphate, reduced form (NADPH, 10 mM) and terminated by transferring an aliquot into solvent after different time points (0, 5, 15, 30, 60 min). Additionally, the NADPH-independent degradation is monitored in incubations without NADPH, terminated at the last time point by addition of acetonitrile. The quenched incubations are pelleted by centrifugation (4,000 rpm, 15 min). An aliquot of the supernatant is assayed by LC-MS/MS to quantify the concentration of parent compound in the individual samples.
In vitro intrinsic clearance (CLint, in vitro) is calculated from the time course of the disappearance of the test drug during the microsomal incubation. Each plot is fitted to the first-order elimination rate constant as C(t)═C0*exp(−ke*t), where C(t) and C0 are the concentration of unchanged test drug at incubation time t and that at preincubation and ke is the disappearance rate constant of the unchanged drug. Subsequently, CLint in vitro (μL min^−1·amount protein) values are converted to predicted CLint,in vivo (mL min^−1 kg^−1) from incubation parameters according to the equation CLint, in vivo=CLint, in vitro×(incubation volume (ml)/amount protein (mg))×(amount protein (mg)/g liver tissue)×(liver weight/body wt.).
For better across species comparison the predicted clearance is expressed as percent of the liver blood flow [% QH] (mL min^−1·kg^−1) in the individual species. In general, high stability (corresponding to low % QH) of the compounds across species is desired.

Data set [4] in a line: Plasma protein binding assay (PPB), equilibrium dialysis, 10% FCS in PBS. The following applies: bovine, read-out: PPB 10% FCS (% fu). The data set is classed as in vitro ADME. The procedure: Binding of test compounds to plasma was determined using equilibrium dialysis (ED) and quantitative mass spectrometry interfaced with liquid chromatography (LC-MS). In brief, ED was performed with dialysis devices consisting of two chambers separated by a semipermeable membrane with a molecular weight cut-off of 5-10 kg/mol. One chamber was filled with 10% FCS in PBS containing 1-10 μmol/L test compound and the other chamber was filled with phosphate-buffer saline (PBS) with or without dextran. The dialysis chamber was incubated for 3-5 hours at 37° C. After incubation, protein was precipitated from aliquots of each chamber and the concentration of test compound in the supernatant of the plasma-containing compartment (Cserum) and of the buffer-containing compartment (Cbuffer) was determined by LC-MS. The fraction of unbound test compound (not bound to plasma) (fu) was calculated according to the following equation: […]

A further data set concerns NCI-H358 cells. As to the kind of experiment: NCI-H358 CTG proliferation assay (120 h) (NSCLC, G12C). The data set is classed as cell-based, human. The following applies: Homo sapiens, assay 2, CTG, read-out: H358 (assay 2) IC50. The procedure:
NCI-H358 CTG Proliferation Assay (120 h) (NSCLC, G12C)
NCI-H358 cells (ATCC No. CRL-5807) are dispensed into white bottom opaque 96 well plates (Perkin Elmer cat no. 5680) at a density of 2000 cells per well in 100 μL RPMI-1640 ATCC-Formulation (Gibco #A10491)+10% FCS (fetal calf serum) (assay 1) or into black 384-well plates, flat and clear bottom (Greiner, PNr. 781091) at a density of 200 cells per well in 60 μl RPMI-1640 ATCC-Formulation (Gibco #A10491)+10% FCS (fetal calf serum) (assay 2). […] Compounds (10 mM stock in DMSO) are added at logarithmic dose series using the HP Digital Dispenser D300 (Tecan) (assay 1) or the ECHO acoustic liquid handler system (Beckman Coulter) (assay 2), normalizing for added DMSO and including DMSO controls. For the TO time point measurement, untreated cells are analyzed at the time of compound addition. Plates are incubated for 120 h, and cell viability is measured using CellTiter-Glo luminescent cell viability reagent (Promega product code G7570). Viability (stated as percent of control) is defined as relative luminescence units RLU of each well divided by the RLU of cells in DMSO controls. IC50 values are determined from viability measurements by non-linear regression using a four parameter model.

For data set [5], the system named is KRAS G12V-dependent Ba/F3 cells. As to the kind of experiment: Ba/F3 proliferation assay, KRAS G12V.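 Note: proliferation IC50 in KRAS G12V-dependent Ba/F3 cells read by AlamarBlue.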 The format is cell-based. The following applies: Mus musculus, BaF3, 72 h, AlamarBlue. The procedure: as §10, §11
(Alamar Blue is a resazurin reagent that responds to reducing activity.)

Data set [6] has as its system KRAS G12D-dependent Ba/F3 cells. The experiment in a line: Ba/F3 proliferation assay, KRAS G12D. The data set is classed as cell-based. The conditions noted are these: Mus musculus, BaF3, 72 h, AlamarBlue. The procedure: as §10, §11

Chain of KRAS (G12D)::SOS1 (P01116 other isoform, or with tags, fused parts or gaps G12D): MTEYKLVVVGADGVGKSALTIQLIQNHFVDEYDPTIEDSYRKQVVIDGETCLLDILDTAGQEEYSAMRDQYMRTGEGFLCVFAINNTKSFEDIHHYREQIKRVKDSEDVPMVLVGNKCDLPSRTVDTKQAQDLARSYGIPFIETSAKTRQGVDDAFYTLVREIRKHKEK
Chain of KRAS (G12C)::SOS1 (P01116 other isoform, or with tags, fused parts or gaps G12C/C51S/C80L/C118S): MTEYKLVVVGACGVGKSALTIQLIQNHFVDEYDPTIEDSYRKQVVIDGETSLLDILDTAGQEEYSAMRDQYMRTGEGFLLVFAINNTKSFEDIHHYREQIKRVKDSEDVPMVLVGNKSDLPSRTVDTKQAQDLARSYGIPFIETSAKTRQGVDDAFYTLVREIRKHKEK

Regarding `Cc1cc(-c2onc3c2CCC[C@@]32CCCc3sc(N)c(C#N)c32)nc(N2CCCNC[C@@H]2C)n1` [I-35], the IC50 is 21 nM at KRAS (G12D)::SOS1, 32 nM at KRAS (G12C)::SOS1 and 289 nM in data set [2]. Moreover, the solubility at 24 h in data set [1] (McIlvaine buffer pH 4.5, read-out: solubility pH 4.5) is 3 µg/mL (≈ 6.13 µM); in data set [1] (McIlvaine buffer pH 6.8, read-out: solubility pH 6.8) it was below 1 µg/mL. For the same compound, the “HLM QH” value in data set [3] is recorded as 32%.

Regarding `C[C@H](Oc1cc(N2CCN3CCC[C@]3(C)C2)nc(-c2noc3c2CCC[C@@]32CCCc3sc(N)c(C#N)c32)n1)[C@@H]1CCCN1C` [II-52], the fraction unbound in data set [4] came out at 0.48. The IC50 in the data set on NCI-H358 cells was found to be 1720 nM; in [5], 401 nM; in [2], 403 nM; in data set [6] it was 72 nM. The “HLM QH” value in [3] is given as below 24%.

As for `C[C@H](Oc1cc(-n2ccnn2)nc(-c2noc3c2CCC[C@@]32CCCc3sc(N)c(C#N)c32)n1)[C@@H]1CCCN1C` [II-108], the fraction unbound in data set [4] turned out to be 0.42. In addition, the half-inhibitory concentration (IC50) with NCI-H358 cells was 134 nM; in data set [5] it was 8 nM; in data set [2] it was 15 nM; in data set [6] it was 54 nM. For the same compound, the “HLM QH” value in data set [3] is 59%.

Consider `C[C@H]1CN(C)CCCN1c1nc(-c2noc3c2CCC[C@@]32CCCc3sc(N)c(C#N)c32)cc(N2CCN(C)C3(CC3)C2)n1` [II-172], for which the figures for the IC50 (at KRAS (G12D)::SOS1; at KRAS (G12C)::SOS1; in data set [2]) were 36 nM, 888 nM and 830 nM, respectively. Further, the “HLM QH” value in data set [3] was 51%.

What is called IC50 is the concentration needed to halve the response being measured. By solubility is commonly meant the concentration that dissolves in the medium under given conditions.

Values taken from patent US20240174690A1, “ANNULATED 2-AMINO-3-CYANO THIOPHENES AND DERIVATIVES FOR THE TREATMENT OF CANCER” (BOEHRINGER INGELHEIM INTERNATIONAL GMBH, priority 2021, published 2024).
